# Values of other authors as cited in patent US20110047631A1, “HEAT SHOCK PROTEIN DEFICIENCIES AS MODEL SYSTEMS FOR BRAIN PATHOLOGY AND CANCER” (Medical College of Georgia Research Institute Inc., priority 2009, published 2011).
# Columns and labels:
# [1] = system: mouse models of Amyotrophic Lateral Sclerosis (ALS)
# [2] = 8 mg/kg per mice daily dose
compound,measurement,setting,value
CC1=C(O)C(=O)C=C2C1=CC=C1[C@@]2(C)CC[C@@]2(C)[C@@H]3C[C@](C)(C(=O)O)CC[C@]3(C)CC[C@]12C [Celasterol],expression of Hsps,Hsps,enhance the expression of Hsps
same,neuronal cell death and life span,[1],block neuronal cell death and extend the life of these mice
same,toxicity,[2],no toxicity
